Patent US12157730B2, “Heteroaryl derivative, method for producing same, and pharmaceutical composition comprising same as effective component” (VORONOI INC., priority 2019, dated 2024)

biological target: T1, Ba/F3 cell EGFR Exon20 ins NPH (Homo sapiens, UniProt P00533, INS773NPH); test: Ba/F3 cell proliferation suppression, EGFR Exon20 ins NPH; assay type: cell-based; conditions: GI50 class; Ba/F3 cell line with NPH inserted at Exon20 of EGFR; 72 hours
T1 construct: expressed in transfected cells; host or cells: Ba/F3
Outline: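 Cells (3000–5000/well) plated 24 h before compound, 12-point 3-fold dilutions at 0.3 nM to 50 um final; Ba/F3 lines grown with 5 ng/ml IL-3. Viability by CellTiter-Glo luminescence after 72 h, growth ratio vs control, GI50 from curves; triplicate.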

Row | SMILES | Ba/F3 (NPH) Activity
1 | C=CC(=O)Nc1cc(Nc2cc(N3OCC[C@@H]3Cc3cccc(F)c3)ncn2)c(OC)cc1N1CCC(N2C[C@H]3C[C@@H]2CO3)CC1 [compound 998, N-(2-(4-((1R,4R)-2-oxa-5-azabicyclo [2.2.1]heptane-5-yl)piperidine-1-yl)-5-((6-((S)-3-(3-fluorobenzyl)isoxazolidine-2-yl)pyrimidine-4-yl)amino)-4-methoxyphenyl) acrylamide] | A (GI50 < 50 nM)
2 | C=CC(=O)Nc1cc(Nc2cc(N3OCC[C@@H]3c3ccc(Cl)cc3F)ncn2)c(OC)cc1N1CCC(N2C[C@@H]3C[C@H]2CO3)CC1 [compound 373, N-(2-(4-((1S,4S)-2-oxa-5-azabicyclo[2.2.1]heptane-5-yl)piperidine-1-yl)-5-((6-((R)-3-(4-chloro-2-fluorophenyl)isoxazolidine-2-yl)pyrimidine-4-yl)amino)-4-methoxyphenyl) acrylamide] | A (GI50 < 50 nM)
3 | C=CC(=O)Nc1cc(Nc2cc(N3OCC[C@@H]3c3cc(F)cc(F)c3)ncn2)c(OC)cc1N1CCC(N2C[C@H]3CC[C@@H](C2)O3)CC1 [compound 759, N-(2-(4-((1R,5S)-8-oxa-3-azabicyclo [3.2.1]octan-3-yl)piperidine-1-yl)-5-((6-((R)-3-(3,5-difluorophenyl)isoxazolidine-2-yl)pyrimidine-4-yl)amino)-4-methoxyphenyl) acrylamide] | B (50 nM ≤ GI50 < 500 nM)
4 | C=CC(=O)Nc1cc(Nc2cc(N3OCC[C@@H]3c3ccc(Cl)c(Cl)c3F)ncn2)c(OC)cc1N1CCC(N2C[C@@H](C)O[C@@H](C)C2)CC1 [compound 773, N-(5-((6-((R)-3-(3,4-dichloro-2-fluorophenyl)isoxazolidine-2-yl)pyrimidine-4-yl)amino)-2-(4-((2S,6R)-2,6-dimethylmorpholino)piperidine-1-yl)-4-methoxyphenyl) acrylamide] | B (50 nM ≤ GI50 < 500 nM)
5 | C=CC(=O)Nc1cc(Nc2cc(N3OCC[C@H]3c3c(F)cccc3F)ncn2)c(OC)cc1N1CCC(N2CCC(N(C)C)CC2)CC1 [compound 369, N-(5-((6-((S)-3-(2,6-difluorophenyl)isoxazolidine-2-yl)pyrimidine-4-yl)amino)-2-(4-(dimethylamino)-[1,4'-bipiperidine]-1'-yl)-4-methoxyphenyl) acrylamide] | C (500 nM ≤ GI50 < 5000 nM)
6 | C=CC(=O)Nc1cc(Nc2cc(N3OCC[C@@H]3c3cccc(F)c3)ncn2)c(OC)cc1N1CCC(N2C[C@@H]3C[C@H]2CO3)CC1 [Example 244, N-(2-(4-((1S,4S)-2-oxa-5-azabicyclo[2.2.1]heptane-5-yl)piperidine-1-yl)-5-((6-((R)-3-(3-fluorophenyl)isoxazolidine-2-yl)pyrimidine-4-yl)amino)-4-methoxyphenyl) acrylamide] | A (GI50 < 50 nM)
7 | C=CC(=O)Nc1cc(Nc2cc(N3OCC[C@@H]3c3ccc(F)cc3F)ncn2)c(OC)cc1N1C[C@H]2C[C@@H]1CN2CC [compound 385, N-(5-((6-((R)-3-(2,4-difluorophenyl)isoxazolidine-2-yl)pyrimidine-4-yl)amino)-2-((1R,4R)-5-ethyl-2,5-diazabicyclo[2.2.1]heptane-2-yl)-4-methoxyphenyl) acrylamide] | A (GI50 < 50 nM)
8 | C=CC(=O)Nc1cc(Nc2cc(N3OCC[C@@H]3c3cc(F)cc(Cl)c3)ncn2)c(OC)cc1N1CCC(N2CCN(C3CC3)[C@H](C)C2)CC1 [Example 158, N-(5-((6-((R)-3-(3-chloro-5-fluorophenyl)isoxazolidine-2-yl)pyrimidine-4-yl)amino)-2-(4-((R)-4-cyclopropyl-3-methylpiperazine-1-yl)piperidine-1-yl)-4-methoxyphenyl) acrylamide] | A (GI50 < 50 nM)
9 | C=CC(=O)Nc1cc(Nc2cc(N3OCC[C@H]3c3c(F)cccc3F)ncn2)c(OC)cc1N1CCC(N2CC[C@@H](N(C)C)C2)CC1 [compound 314, N-(5-((6-((S)-3-(2,6-difluorophenyl)isoxazolidine-2-yl)pyrimidine-4-yl)amino)-2-(4-((R)-3-(dimethylamino)pyrolidine-1-yl)piperidine-1-yl)-4-methoxyphenyl) acrylamide] | C (500 nM ≤ GI50 < 5000 nM)
10 | C=CC(=O)Nc1cc(Nc2cc(N3OCC[C@@H]3c3cccc(C)c3F)ncn2)c(OC)cc1N1CCC(N2C[C@H]3C[C@@H]2CO3)CC1 [compound 320, N-(2-(4-((1R,4R)-2-oxa-5-azabicyclo[2.2.1]heptane-5-yl)piperidine-1-yl)-5-((6-((R)-3-(2-fluoro-3-methylphenyl)isoxazolidine-2-yl)pyrimidine-4-yl)amino)-4-methoxyphenyl) acrylamide] | A (GI50 < 50 nM)
11 | C=CC(=O)Nc1cc(Nc2cc(N3OCC[C@@H]3c3cc(F)cc(F)c3)ncn2)c(OC)cc1N1CCC(N2CCN(CC3CC3)CC2)CC1 [Example 92, N-(2-(4-(4-(cyclopropylmethyl)piperazine-1-yl)piperidine-1-yl)-5-((6-((R)-3-(3,5-difluorophenyl)isoxazolidine-2-yl)pyrimidine-4-yl)amino)-4-methoxyphenyl) acrylamide] | A (GI50 < 50 nM)
12 | C=CC(=O)Nc1cc(Nc2cc(N3OCC[C@@H]3c3cc(F)ccc3F)ncn2)c(OC)cc1N1CCC(N2CCN(CC3CC3)CC2)CC1 [Example 93, N-(2-(4-(4-(cyclopropylmethyl)piperazine-1-yl)piperidine-1-yl)-5-((6-((R)-3-(2,5-difluorophenyl)isoxazolidine-2-yl)pyrimidine-4-yl)amino)-4-methoxyphenyl) acrylamide] | A (GI50 < 50 nM)
13 | C=CC(=O)Nc1cc(Nc2cc(N3OCC[C@@H]3c3cccc(F)c3Cl)ncn2)c(OC)cc1N1CCC(N2CCN(C(C)=O)CC2)CC1 [compound 601, N-(2-(4-(4-acetylpiperazine-1-yl)piperidine-1-yl)-5-((6-((R)-3-(2-chloro-3-fluorophenyl)isoxazolidine-2-yl)pyrimidine-4-yl)amino)-4-methoxyphenyl) acrylamide] | A (GI50 < 50 nM)
14 | C=CC(=O)Nc1cc(Nc2cc(N3OCC[C@@H]3c3cccc(C#N)c3)ncn2)c(OC)cc1N1CCC(N2CCN(C)CC2)CC1 [compound 398, N-(5-((6-((R)-3-(3-cyanophenyl)isoxazolidine-2-yl)pyrimidine-4-yl)amino)-4-methoxy-2-(4-(4-methylpiperazine-1-yl)piperidine-1-yl)phenyl) acrylamide] | A (GI50 < 50 nM)
15 | C=CC(=O)Nc1cc(Nc2cc(N3OCC[C@@H]3c3ccc(C)nc3)ncn2)c(OC)cc1N1CC[C@H](N(C)C)C1 [Example 222, N-(2-((S)-3-(dimethylamino)pyrolidine-1-yl)-4-methoxy-5-((6-((R)-3-(6-methylpyridine-3-yl)isoxazolidine-2-yl)pyrimidine-4-yl)amino)phenyl)acrylamide] | B (50 nM ≤ GI50 < 500 nM)

Other lines, results leading:

Row | Ba/F3 (NPH) Activity | SMILES
16 | A (GI50 < 50 nM) | C=CC(=O)Nc1cc(Nc2cc(N3OCC[C@@H]3c3cccc(Cl)c3)ncn2)c(OC)cc1N1CC[C@@H](N2CCOCC2)C1 [compound 465, N-(5-((6-((R)-3-(3-chlorophenyl)isoxazolidine-2-yl)pyrimidine-4-yl)amino)-4-methoxy-2-((R)-3-morpholinopyrolidine-1-yl)phenyl)acrylamide]
17 | A (GI50 < 50 nM) | C=CC(=O)Nc1cc(Nc2cc(N3OCC[C@@H]3c3ccc(F)c(Cl)c3)ncn2)c(OC)cc1N1CCC(N2CCC3(CC2)CC3)CC1 [compound 872, N-(2-(4-(6-azaspiro [2.5]octan-6-yl)piperidine-1-yl)-5-((6-((R)-3-(3-chloro-4-fluorophenyl)isoxazolidine-2-yl)pyrimidine-4-yl)amino)-4-methoxyphenyl) acrylamide]
18 | B (50 nM ≤ GI50 < 500 nM) | C=CC(=O)Nc1cc(Nc2cc(N3OCC[C@@H]3c3c(F)ccc(F)c3Cl)ncn2)c(OC)cc1N1CCN(C2CC2)CC1 [compound 691, N-(5-((6-((R)-3-(2-chloro-3,6-difluorophenyl)isoxazolidine-2-yl)pyrimidine-4-yl)amino)-2-(4-cyclopropylpiperazine-1-yl)-4-methoxyphenyl) acrylamide]
19 | A (GI50 < 50 nM) | C=CC(=O)Nc1cc(Nc2cc(N3OCC[C@@H]3c3ccc(Cl)cc3F)ncn2)c(OC)cc1N1CCC(N2CCN(C)CC2)CC1 [compound 454, N-(5-((6-((R)-3-(4-chloro-2-fluorophenyl)isoxazolidine-2-yl)pyrimidine-4-yl)amino)-4-methoxy-2-(4-(4-methylpiperazine-1-yl)piperidine-1-yl)phenyl) acrylamide]
20 | A (GI50 < 50 nM) | C=CC(=O)Nc1cc(Nc2cc(N3OCC[C@@H]3c3ccc(Cl)c(Cl)c3)ncn2)c(OC)cc1N1CCC(N2CCOCC2)CC1 [compound 683, N-(5-((6-((R)-3-(3,4-dichlorophenyl)isoxazolidine-2-yl)pyrimidine-4-yl)amino)-4-methoxy-2-(4-morpholinopiperidine-1-yl)phenyl)acrylamide]
21 | A (GI50 < 50 nM) | C=CC(=O)Nc1cc(Nc2cc(N3OCC[C@@H]3c3ccc(Cl)cc3)ncn2)c(OC)cc1N1CCN(CC)CC1 [Example 255, N-(5-((6-((R)-3-(4-chlorophenyl)isoxazolidine-2-yl)pyrimidine-4-yl)amino)-2-(4-ethylpiperazine-1-yl)-4-methoxyphenyl) acrylamide]
22 | A (GI50 < 50 nM) | C=CC(=O)Nc1cc(Nc2cc(N3OCC[C@@H]3c3ccc(F)c(Cl)c3)ncn2)c(OC)cc1N1CCC(N(C)C)CC1 [compound 755, N-(5-((6-((R)-3-(3-chloro-4-fluorophenyl)isoxazolidine-2-yl)pyrimidine-4-yl)amino)-2-(4-(dimethylamino)piperidine-1-yl)-4-methoxyphenyl) acrylamide]
